This is an account of results in article PMC11643494, “Structure–Activity Relationship Studies in a Series of 2-Aryloxy-N-(pyrimidin-5-yl)acetamide Inhibitors of SLACK Potassium Channels” (Molecules, 2024).

In this assay the target is T1, WT human SLACK (Homo sapiens, UniProt Q5JUK3).
T1 construct: host or cells: CHO-K1
T1 sequence (Q5JUK3 1-1235 isoform Q5JUK3-3): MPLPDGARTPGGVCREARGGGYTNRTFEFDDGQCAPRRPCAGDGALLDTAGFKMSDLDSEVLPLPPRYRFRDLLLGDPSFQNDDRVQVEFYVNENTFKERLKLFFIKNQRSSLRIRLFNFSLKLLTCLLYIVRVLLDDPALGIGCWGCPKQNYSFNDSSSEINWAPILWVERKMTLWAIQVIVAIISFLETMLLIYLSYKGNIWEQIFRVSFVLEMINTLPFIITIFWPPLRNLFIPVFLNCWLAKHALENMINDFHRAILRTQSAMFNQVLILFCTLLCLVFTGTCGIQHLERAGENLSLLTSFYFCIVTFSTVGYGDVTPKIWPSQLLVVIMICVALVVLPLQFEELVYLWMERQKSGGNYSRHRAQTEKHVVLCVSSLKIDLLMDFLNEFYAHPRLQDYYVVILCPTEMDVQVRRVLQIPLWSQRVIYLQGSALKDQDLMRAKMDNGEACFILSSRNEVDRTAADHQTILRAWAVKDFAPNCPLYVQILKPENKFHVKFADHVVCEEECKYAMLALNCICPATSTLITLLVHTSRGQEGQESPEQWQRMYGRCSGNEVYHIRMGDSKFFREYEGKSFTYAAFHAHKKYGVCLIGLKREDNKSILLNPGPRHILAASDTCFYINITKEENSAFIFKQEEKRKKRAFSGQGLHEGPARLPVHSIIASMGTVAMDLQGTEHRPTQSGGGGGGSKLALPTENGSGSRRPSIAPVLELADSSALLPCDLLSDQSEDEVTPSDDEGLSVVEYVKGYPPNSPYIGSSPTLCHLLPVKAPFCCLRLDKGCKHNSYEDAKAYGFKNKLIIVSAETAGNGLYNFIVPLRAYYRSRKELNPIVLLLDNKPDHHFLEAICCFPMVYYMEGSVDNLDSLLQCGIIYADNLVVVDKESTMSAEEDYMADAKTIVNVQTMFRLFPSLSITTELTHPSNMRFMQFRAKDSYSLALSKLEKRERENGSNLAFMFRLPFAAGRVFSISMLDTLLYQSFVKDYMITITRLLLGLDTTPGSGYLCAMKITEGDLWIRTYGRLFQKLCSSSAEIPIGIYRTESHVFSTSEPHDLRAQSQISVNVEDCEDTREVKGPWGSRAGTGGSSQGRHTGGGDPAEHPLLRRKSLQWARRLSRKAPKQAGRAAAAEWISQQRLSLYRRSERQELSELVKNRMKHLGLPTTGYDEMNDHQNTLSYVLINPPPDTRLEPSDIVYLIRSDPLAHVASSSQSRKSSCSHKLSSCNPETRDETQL
Kind of assay: Whole-cell automated patch clamp (APC) in CHO-K1 cells stably expressing WT human SLACK. Type of assay: cell-based. The conditions noted are these: for IC50 / WT SLACK inhibition, result in words: APC; for IC50: CHO-K1 cells stably expressing WT human SLACK, averages (n ≥ 3); for SLACK Imax: maximum inhibition at 30 µM test compound standardized to VU0606170 (set at 100%), WT human SLACK; for WT SLACK inhibition, result in words: concentrations 0.125 to 30 µM; for Fold less potent than hit 10 (SLACK inhibition): ratio of WT SLACK APC IC50 to hit 10. The method, then: Using concentrations ranging from 0.125 to 30 µM in half-log steps, a concentration–response relationship was generated for each new analog using our APC assay in CHO-K1 cells stably expressing WT SLACK. A minimum of three cells, i.e., replicates, were collected per concentration for each analog.
Automated patch clamp recording was performed with a SyncroPatch 768 PE system (Nanion, Munich, Germany) as previously described. Whole-cell recordings were performed at room temperature. Cells were harvested by first washing with PBS without Mg^2+ or Ca^2+ (Gibco, Billings, MT, USA) to remove cell culture medium, followed by dissociation with TryPLE (Gibco, Billings, MT, USA). Cells were then resuspended and diluted to 200,000 cells/mL in external solution. External solution contained 105 mM NaCl, 4 mM KCl, 1 mM MgCl2, 5 mM CaCl2, 10 mM HEPES, 40 mM N-Methyl-D-glucamine chloride, titrated to pH 7.4 with NaOH and osmolarity of 300 mOsm/kg; internal solution contained 70 mM NaCl, 70 mM KF, 10 mM KCl, 5 mM EGTA, 5mM HEPES, titrated to a pH 7.2 with KOH and osmolarity of 295 mOsm/kg.
The APC protocol was set as following: Cells were held at […] −80 mV for 100 ms, then a ramp protocol was performed from −100 mV to 80 mV at 0.4 mV/ms, hold the cell at −80 mV for another 100 ms, then steps were performed at −20 mV, 0 mV, +20 mV, +40 mV, and +60 mV for 100 ms of each step. Whole-cell currents were measured at 0 mV and normalized to current after external buffer addition.
(The patch-clamp technique gives a direct electrical read-out from membranes.)

As for `CC(C)(Oc1ccc(Cl)cc1)C(=O)Nc1cnc(Oc2ccccc2F)nc1` [Analog 10], the IC50 (usually the concentration needed to halve the response being measured) is 1400 nM.

As for `CC(C)(Oc1ccc(Cl)cc1)C(=O)Nc1cnc(Oc2ccccc2)nc1` [Analog 15], the IC50 turned out to be 1700 nM.

Compound `CC(C)(Oc1ccc(Cl)cc1)C(=O)Nc1cnc(Oc2cccc(F)c2)nc1` [Analog 16] yielded an IC50 of 2100 nM.

Consider `CC(C)(Oc1ccc(Cl)cc1)C(=O)Nc1cnc(Oc2ccc(F)cc2)nc1` [Analog 17], for which 1800 nM corresponded to half-maximal inhibition (IC50) and the “SLACK Imax” value is recorded as 102%.

With `CC(C)(Oc1ccc(Cl)cc1)C(=O)Nc1cnc(Oc2ccccc2Cl)nc1` [Analog 18], half-maximal inhibition (IC50) was put at 1200 nM and the “SLACK Imax” value came out at 97%.

`CC(C)(Oc1ccc(Cl)cc1)C(=O)Nc1cnc(Oc2cccc(Cl)c2)nc1` [Analog 19] displayed a half-inhibitory concentration (IC50) of 1500 nM.

With `CC(C)(Oc1ccc(Cl)cc1)C(=O)Nc1cnc(Oc2ccc(Cl)cc2)nc1` [Analog 20], the IC50 came to 1200 nM.

`Cc1ccccc1Oc1ncc(NC(=O)C(C)(C)Oc2ccc(Cl)cc2)cn1` [Analog 21] showed an IC50 of 2900 nM.

With `Cc1cccc(Oc2ncc(NC(=O)C(C)(C)Oc3ccc(Cl)cc3)cn2)c1` [Analog 22], inhibition was half-maximal at 2300 nM (IC50).

In the case of `Cc1ccc(Oc2ncc(NC(=O)C(C)(C)Oc3ccc(Cl)cc3)cn2)cc1` [Analog 23], half-maximal inhibition (IC50) was put at 1700 nM.

Compound `CC(C)(Oc1ccc(Cl)cc1)C(=O)Nc1cnc(Oc2ccccc2C(F)(F)F)nc1` [Analog 24] yielded an IC50 of 1700 nM.

`CC(C)(Oc1ccc(Cl)cc1)C(=O)Nc1cnc(Oc2cccc(C(F)(F)F)c2)nc1` [Analog 25]: the half-maximal inhibitory concentration (IC50) was found to be 1900 nM and the “SLACK Imax” value was 101%.

Turning to `CC(C)(Oc1ccc(Cl)cc1)C(=O)Nc1cnc(Oc2ccc(C(F)(F)F)cc2)nc1` [Analog 26], it took 1000 nM to reach half-maximal inhibition (IC50).

As for `COc1ccccc1Oc1ncc(NC(=O)C(C)(C)Oc2ccc(Cl)cc2)cn1` [Analog 27], half-maximal inhibition (IC50) required 1500 nM and the “SLACK Imax” value is 101%.

On to `COc1cccc(Oc2ncc(NC(=O)C(C)(C)Oc3ccc(Cl)cc3)cn2)c1` [Analog 28], for which the IC50 worked out at 2400 nM and the “SLACK Imax” value turned out to be 101%.

Take `COc1ccc(Oc2ncc(NC(=O)C(C)(C)Oc3ccc(Cl)cc3)cn2)cc1` [Analog 29]: it took 1800 nM to reach half-maximal inhibition (IC50).

On to `CC(C)(Oc1ccc(Cl)cc1)C(=O)Nc1cnc(Oc2ccccc2OC(F)(F)F)nc1` [Analog 30], for which the IC50 came out at 1400 nM.

Compound `CC(C)(Oc1ccc(Cl)cc1)C(=O)Nc1cnc(Oc2ccc(OC(F)(F)F)cc2)nc1` [Analog 32] gave an IC50 of 1900 nM.

With `CC(C)(Oc1ccc(Cl)cc1)C(=O)Nc1cnc(Oc2ccccc2C#N)nc1` [Analog 33], inhibition was half-maximal at 940 nM (IC50).

The compound `CC(C)(Oc1ccc(Cl)cc1)C(=O)Nc1cnc(Oc2cccc(C#N)c2)nc1` [Analog 34] returned an IC50 of 1700 nM.

`CC(C)(Oc1ccc(Cl)cc1)C(=O)Nc1cnc(Oc2ccc(C#N)cc2)nc1` [Analog 35] showed an IC50 of 1100 nM.

Regarding `CC(C)(Oc1ccc(Cl)cc1)C(=O)Nc1cnc(Oc2ccc(S(C)(=O)=O)cc2)nc1` [Analog 36], the midpoint of inhibition, the IC50, lay at 1100 nM.

Take `CC(C)(Oc1ccc(Cl)cc1)C(=O)Nc1cnc(Oc2ccc(C(N)=O)cc2)nc1` [Analog 37]: the IC50 was over 10000 nM; the “WT SLACK inhibition, result in words” value was “only a weak inhibitor”; the “SLACK Imax” value is reported as 110%.

`CC(C)(Oc1ccc(Cl)cc1)C(=O)Nc1cnc(Oc2ccc(F)cc2F)nc1` [Analog 38]: the IC50 was 1000 nM and the “SLACK Imax” value was determined as 101%.

`CC(C)(Oc1ccc(Cl)cc1)C(=O)Nc1cnc(Oc2cc(F)ccc2F)nc1` [Analog 39]: the IC50 turned out to be 1300 nM and the “SLACK Imax” value came to 101%.

In the case of `CC(C)(Oc1ccc(Cl)cc1)C(=O)Nc1cnc(Oc2ccc(F)c(F)c2)nc1` [Analog 41], it took 1700 nM to reach half-maximal inhibition (IC50).

`CC(C)(Oc1ccc(Cl)cc1)C(=O)Nc1cnc(Oc2cc(F)cc(F)c2)nc1` [Analog 42] returned an IC50 of 1400 nM.

With `CC(C)(Oc1ccc(Cl)cc1)C(=O)Nc1cnc(Oc2c(F)cccc2Cl)nc1` [Analog 43], the IC50 is 580 nM and the “SLACK Imax” value was 91%.

Regarding `CC(C)(Oc1ccccc1)C(=O)Nc1cnc(Oc2ccccc2F)nc1` [Analog 44], the IC50 was over 10000 nM; the “WT SLACK inhibition, result in words” value is on record as “only weakly active”; the “SLACK Imax” value is 66%.

Consider `CC(C)(Oc1ccccc1F)C(=O)Nc1cnc(Oc2ccccc2F)nc1` [Analog 45], for which the 50% inhibitory concentration (IC50) is over 10000 nM; the “WT SLACK inhibition, result in words” value is “only weak inhibitors”; the “SLACK Imax” value amounted to 25%.

In the case of `Cc1ccccc1OC(C)(C)C(=O)Nc1cnc(Oc2ccccc2F)nc1` [Analog 50], the IC50 was found to be 2900 nM and the “Fold less potent than hit 10 (SLACK inhibition)” value is “approximately 2 fold”.

Turning to `Cc1cccc(OC(C)(C)C(=O)Nc2cnc(Oc3ccccc3F)nc2)c1` [Analog 51], the “WT SLACK inhibition, result in words” value was “inactive up to the top concentration of 30 µM”.

Consider `Cc1ccc(OC(C)(C)C(=O)Nc2cnc(Oc3ccccc3F)nc2)cc1` [Analog 52], for which the IC50 worked out at 7100 nM and the “SLACK Imax” value is listed as 97%.

On to `CC(C)(Oc1ccccc1C(F)(F)F)C(=O)Nc1cnc(Oc2ccccc2F)nc1` [Analog 53], for which the “WT SLACK inhibition, result in words” value was “inactive up to the top concentration of 30 µM”.

With `CC(C)(Oc1cccc(C(F)(F)F)c1)C(=O)Nc1cnc(Oc2ccccc2F)nc1` [Analog 54], the IC50 came out at 3700 nM and the “SLACK Imax” value came to 99%.

As to `CC(C)(Oc1ccc(C(F)(F)F)cc1)C(=O)Nc1cnc(Oc2ccccc2F)nc1` [Analog 55], the concentration for half-maximal inhibition (IC50) is 2800 nM, the “SLACK Imax” value is 101% and the “Fold less potent than hit 10 (SLACK inhibition)” value is on record as “approximately 2 fold”.

Regarding `CC(C)(Oc1ccccc1OC(F)(F)F)C(=O)Nc1cnc(Oc2ccccc2F)nc1` [Analog 56], the “WT SLACK inhibition, result in words” value is “inactive up to the top concentration of 30 µM”.

Regarding `CC(C)(Oc1cccc(OC(F)(F)F)c1)C(=O)Nc1cnc(Oc2ccccc2F)nc1` [Analog 57], the midpoint of inhibition, the IC50, lay at 4600 nM and the “SLACK Imax” value is listed as 98%.

For the compound `CC(C)(Oc1ccc(OC(F)(F)F)cc1)C(=O)Nc1cnc(Oc2ccccc2F)nc1` [Analog 58], the IC50 was over 10000 nM; the “WT SLACK inhibition, result in words” value is reported as “only weak inhibitors”; the “SLACK Imax” value is on record as 104%.

As to `CC(C)(Oc1ccc(C#N)cc1)C(=O)Nc1cnc(Oc2ccccc2F)nc1` [Analog 59], the IC50 was over 10000 nM; the “WT SLACK inhibition, result in words” value is on record as “only weak inhibitors”; the “SLACK Imax” value is listed as 109%.

As to `CC(C)(Oc1ccc(S(C)(=O)=O)cc1)C(=O)Nc1cnc(Oc2ccccc2F)nc1` [Analog 60], the “WT SLACK inhibition, result in words” value is “inactive up to the top concentration of 30 µM”.

For the compound `CC(C)(Oc1ccc(C(N)=O)cc1)C(=O)Nc1cnc(Oc2ccccc2F)nc1` [Analog 61], the “WT SLACK inhibition, result in words” value was “inactive up to the top concentration of 30 µM”.
